Results published in PMC12475274, “Harnessing indole scaffolds to identify small-molecule IRE1α inhibitors modulating XBP1 mRNA splicing” (Nature Communications, 2025).
Values joined by “and” are separate entries in the source; they are usually repeats but may differ in a detail not shown here. Equal entries are not always repeated. Where two headings read alike, the source gives them in different places.

Assays:
[1] = test system: MDA-MB-468 cells; assay: Cell viability assay (CCK-8), MDA-MB-468; assay type: cell-based, human; design: key to MDMB-468 viability: % viability vs DMSO-treated cells, blank-corrected A450; settings: in % (unit assumed)
Experimental: (§1) Cells were collected and seeded into 96-well plates at a density of 2000–4000 cells per well and cultured overnight to allow cells to adhere. After adherence, cells were treated with the indicated compounds for 72 h. Then 20 μL CCK-8 solution (Vazyme, A311) was added into each well and incubated at 37 °C for 2–4 h. Absorbance was detected at a wavelength of 450 nm using a TECAN plate reader. Cell viability was calculated with the equation: Cell viability (%) = 100(Absorbance of treated cell - Absorbance of Blank control)/ (Absorbance of DMSO-treated cells - Absorbance of Blank control); Blank control: medium and CCK-8 solution, no cells.

[2] = test system: HCT 116 cells; assay: Cell viability assay (CCK-8), HCT 116; assay type: cell-based, human; design: key to HCT 116 viability: % viability vs DMSO-treated cells, blank-corrected A450; settings: in % (unit assumed)
Experimental: as §1

[3] = test system: A549 cells; assay: Cell viability assay (CCK-8), A549; assay type: cell-based, human; design: key to A549 viability: % viability vs DMSO-treated cells, blank-corrected A450; settings: in % (unit assumed)
Experimental: as §1

[4] = test system: HT-29 cells; assay: Cell viability assay (CCK-8), HT-29; assay type: cell-based, human; design: key to HT-29 viability: % viability vs DMSO-treated cells, blank-corrected A450; settings: in % (unit assumed)
Experimental: as §1

[5] = target: T1, phosphorylated IRE1α (p-IRE1α) (Homo sapiens, UniProt O75460); assay: FRET-based IRE1α RNase activity assay, phosphorylated IRE1α; assay type: biochemical
T1 construct: Human IRE1α kinase and RNase domain (residues 547–977) was subcloned into pLIB plasmid; His tag (with TEV cleavage site) (N, cleaved yes); made in house; host or cells: Sf9 insect cells, baculovirus (Bac-to-Bac)
Outline: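 Cleavage of a dual-labeled XBP1 RNA (200 nM) was followed kinetically over 1 h at room temperature at 485/535 nm, with initial slopes giving percent inhibition and IC50. Enzyme was 4 nM phosphorylated human IRE1α 547–977 from insect cells, incubated with compound for 30 min before substrate; buffer 20 mM HEPES pH 7.5, KOAc, MgOAc2, DTT, Triton X-100.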

[6] = target: IRE1α (ERN1) (Homo sapiens, UniProt O75460); assay: LanthaScreen Eu kinase binding assay, IRE1α
Experimental: LanthaScreen^TM Eu kinase binding assays were conducted by SelectScreen Kinase Profiling Services (Thermo Fisher) using Alexa Fluor conjugated kinase tracer, tagged kinase protein, and Eu-labeled anti-tag antibody. The binding of the tracer to the kinase will form the tracer-kinase complex, resulting in a high FRET signal with the Eu-labeled anti-tag antibody. Displacement of the tracer by a kinase inhibitor led to a decreased FRET signal. […] Buffer A containing 50 mM HEPES pH 7.5, 0.01% BRIJ-35, 10 mM MgCl2, and 1 mM EGTA was used.
Kinase profiling was conducted by the SelectScreen Kinase Profiling Services (Thermo Fisher), using Z′-LYTE, Adapta, or LanthaScreen Eu Kinase Binding Assay for different kinases. The kinome phylogenetic tree was generated using the KinMap web portal.

[7] = target: T2, dephosphorylated IRE1α (547–977) (Homo sapiens, UniProt O75460); assay: FRET-based IRE1α RNase activity assay, dephosphorylated IRE1α; assay type: biochemical
T2 construct: Human IRE1α kinase and RNase domain (residues 547–977) was subcloned into pLIB plasmid; His tag (with TEV cleavage site) (N, cleaved yes); made in house; host or cells: Sf9 insect cells, baculovirus (Bac-to-Bac)
Outline: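 Inhibition came from the linear-phase cleavage rate of 100 nM XBP1-sequence FAM/BHQ1 RNA, monitored at 485/535 nm over one hour and fitted to IC50. Enzyme: 40 nM unphosphorylated IRE1α kinase-RNase domain (547–977), exposed to compound for 30 min at room temperature before substrate, in HEPES pH 7.5 buffer.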

[8] = Conc. 50000 nM, duplicates, read-out: IRE1a Kinase Displacement(%)

T1 sequence (O75460 547-977): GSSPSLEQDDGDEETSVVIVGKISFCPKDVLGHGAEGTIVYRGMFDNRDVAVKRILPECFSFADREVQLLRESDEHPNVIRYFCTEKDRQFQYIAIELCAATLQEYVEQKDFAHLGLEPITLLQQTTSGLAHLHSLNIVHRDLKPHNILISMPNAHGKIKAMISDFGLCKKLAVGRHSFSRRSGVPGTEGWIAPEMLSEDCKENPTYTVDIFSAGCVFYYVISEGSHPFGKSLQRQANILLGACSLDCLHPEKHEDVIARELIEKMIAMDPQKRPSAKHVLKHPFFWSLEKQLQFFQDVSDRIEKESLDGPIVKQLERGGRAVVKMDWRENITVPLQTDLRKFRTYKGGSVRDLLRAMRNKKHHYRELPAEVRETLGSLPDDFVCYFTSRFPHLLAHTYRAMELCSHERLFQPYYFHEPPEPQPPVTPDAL
T2 sequence (O75460 547-977): as above
IRE1α (ERN1), sequence (O75460 19-977): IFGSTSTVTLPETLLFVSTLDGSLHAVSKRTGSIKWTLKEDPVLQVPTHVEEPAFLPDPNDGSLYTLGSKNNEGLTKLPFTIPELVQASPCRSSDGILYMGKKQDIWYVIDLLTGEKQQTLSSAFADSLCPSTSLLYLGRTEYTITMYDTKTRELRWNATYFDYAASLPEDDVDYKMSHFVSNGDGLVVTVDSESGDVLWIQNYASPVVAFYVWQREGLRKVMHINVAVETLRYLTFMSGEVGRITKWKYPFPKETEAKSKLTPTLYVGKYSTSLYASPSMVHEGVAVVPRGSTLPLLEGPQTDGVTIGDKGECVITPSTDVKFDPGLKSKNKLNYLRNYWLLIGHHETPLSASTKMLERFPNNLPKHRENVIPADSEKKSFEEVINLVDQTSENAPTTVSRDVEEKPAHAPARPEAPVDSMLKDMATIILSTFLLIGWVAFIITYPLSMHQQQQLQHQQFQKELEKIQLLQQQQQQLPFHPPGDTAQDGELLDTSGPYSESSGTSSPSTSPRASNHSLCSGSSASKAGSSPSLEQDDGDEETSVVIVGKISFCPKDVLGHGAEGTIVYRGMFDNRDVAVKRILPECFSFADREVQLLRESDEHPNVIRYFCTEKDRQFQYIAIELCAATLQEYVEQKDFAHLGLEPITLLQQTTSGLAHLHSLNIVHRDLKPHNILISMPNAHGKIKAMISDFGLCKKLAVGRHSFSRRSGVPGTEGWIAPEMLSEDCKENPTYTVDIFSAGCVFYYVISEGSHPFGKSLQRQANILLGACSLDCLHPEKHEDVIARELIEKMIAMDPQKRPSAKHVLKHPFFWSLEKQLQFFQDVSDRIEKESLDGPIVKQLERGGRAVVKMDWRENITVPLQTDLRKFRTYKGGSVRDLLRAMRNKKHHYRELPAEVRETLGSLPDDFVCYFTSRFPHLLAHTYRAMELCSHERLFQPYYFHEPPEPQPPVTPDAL

| SMILES | MDMB-468 viability ([1]; 0.205761 μM) | MDMB-468 viability ([1]; 0.617284 μM) | MDMB-468 viability ([1]; 1.85185 μM) | MDMB-468 viability ([1]; 5.55556 μM) | MDMB-468 viability ([1]; 16.6667 μM) | MDMB-468 viability ([1]; 50 μM) | HCT 116 viability ([2]; 0.205761 μM) | HCT 116 viability ([2]; 0.617284 μM) | HCT 116 viability ([2]; 1.85185 μM) | HCT 116 viability ([2]; 5.55556 μM) | HCT 116 viability ([2]; 16.6667 μM) | HCT 116 viability ([2]; 50 μM) | A549 viability ([3]; 0.205761 μM) | A549 viability ([3]; 0.617284 μM) | A549 viability ([3]; 1.85185 μM) | A549 viability ([3]; 5.55556 μM) | A549 viability ([3]; 16.6667 μM) | A549 viability ([3]; 50 μM) | HT-29 viability ([4]; 0.205761 μM) | HT-29 viability ([4]; 0.617284 μM) | further results |
| --- | --- | --- | --- | --- | --- | --- | --- | --- | --- | --- | --- | --- | --- | --- | --- | --- | --- | --- | --- | --- | --- |
| CCOC(=O)CCc1c(C)n(C(=O)c2ccccc2)c2ccc(Br)cc12 [Compound 105] | 105.638 and 111.110 and 96.794 | 104.047 and 105.002 and 96.794 | 99.021 and 100.357 and 92.786 | 101.502 and 93.231 and 90.241 | 91.131 and 95.903 and 102.075 | 78.343 and 88.459 and 92.404 | 105.479 and 107.511 and 97.213 | 103.773 and 98.693 and 112.553 | 103.848 and 104.852 and 99.659 | 103.874 and 100.174 and 105.429 | 102.870 and 107.248 and 108.126 | 80.557 and 78.801 and 90.315 | 96.121 and 99.380 and 106.104 | 98.783 and 101.411 and 97.532 | 93.780 and 103.281 and 111.131 | 105.404 and 106.621 and 106.322 | 96.476 and 98.393 and 111.165 | 100.539 and 103.017 and 106.219 | 113.182 and 110.499 and 118.448 | 123.469 and 111.597 and 102.062 | HT-29 viability ([4]; 1.85185 μM): 133.369 and 110.621 and 100.802; HT-29 viability ([4]; 5.55556 μM): 113.223 and 102.896 and 116.984; HT-29 viability ([4]; 16.6667 μM): 110.519 and 102.367 and 115.540; HT-29 viability ([4]; 50 μM): 128.693 and 87.059 and 105.213 |
| Cc1c(CCC(=O)O)c2cc(Br)ccc2n1C(=O)c1ccccc1 [Compound 107] | 101.311 and 95.140 and 93.231 | 100.675 and 92.658 and 100.039 | 97.239 and 104.174 and 86.869 | 97.876 and 87.887 and 96.349 | 85.214 and 82.224 and 83.624 | 81.333 and 82.288 and 84.260 | 102.833 and 101.904 and 103.547 | 105.053 and 111.700 and 97.075 | 98.142 and 107.837 and 106.069 | 107.561 and 110.157 and 105.065 | 99.383 and 99.772 and 101.528 | 89.136 and 87.455 and 94.529 | 99.758 and 114.080 and 100.963 | 103.947 and 108.835 and 105.037 | 103.339 and 113.208 and 107.080 | 100.390 and 102.432 and 108.606 | 111.429 and 90.004 and 98.703 | 105.990 and 95.489 and 98.817 | 107.531 and 106.250 | 105.681 and 105.762 | HT-29 viability ([4]; 1.85185 μM): 112.450 and 111.942; HT-29 viability ([4]; 5.55556 μM): 121.172 and 105.478; HT-29 viability ([4]; 16.6667 μM): 115.825 and 113.345; HT-29 viability ([4]; 50 μM): 110.661 and 115.500 |
| COc1ccc2c(c1)c(CCC(=O)O)c(C)n2C(=O)c1ccc(S(=O)(=O)F)cc1 [IA06] | – | – | – | – | – | – | – | – | – | – | – | – | – | – | – | – | – | – | – | – | IC50 ([5]; p-IRE1a IC50, individual replicates (n1-n4), FRET assay, source data, unit from Fig. 3): 11.1 µM and 6.78 µM and 5.45 µM; IC50 ([5]; p-IRE1α IC50, FRET assay, RNase activity, mean (± SEM)): 7.79 µM; inhibition at 50 µM ([6]; 50 μM, read-out: kinase inhibition at highest tested concentration): 23%; inhibition at 50 µM [6, 8]: 17%; IC50 ([7]; IRE1a IC50, individual replicates (n1-n4), FRET assay, source data, unit from Fig. 3 / sheet Fig. 2b): 9.65 µM and 7.76 µM and 4.55 µM; IC50 ([7]; IRE1α IC50, FRET assay, RNase activity, mean (± SEM)): 7.32 µM |
| COc1ccc2c(c1)c(CCC(=O)O)c(C)n2C(=O)c1cc2ccccc2s1 [IA10] | – | – | – | – | – | – | – | – | – | – | – | – | – | – | – | – | – | – | – | – | IC50 ([5]; FRET assay, read-out: p-IRE1α IC50 (RNase activity)): 1.97 µM; IC50 ([5]; FRET assay, source data, unit from Fig. 3, read-out: p-IRE1a IC50, individual replicates (n1-n4)): 3.01 µM and 1.92 µM and 0.985 µM; inhibition at 5.56 µM ([6]; Conc. 5560 nM, duplicates, read-out: IRE1a Kinase Displacement(%)): 35%; inhibition at 16.7 µM ([6]; Conc. 16700 nM, duplicates, read-out: IRE1a Kinase Displacement(%)): 63%; inhibition at 50 µM [6, 8]: 58%; IC50 ([6]; IRE1α kinase domain, read-out: IC50 (kinase binding), LanthaScreen Eu kinase binding): 9.61 µM; IC50 ([7]; FRET assay, dephosphorylated IRE1α, read-out: IRE1α IC50 (RNase activity)): 1.81 µM; IC50 ([7]; FRET assay, source data, unit from Fig. 3 / sheet Fig. 2b, read-out: IRE1a IC50, individual replicates (n1-n4)): 0.727 µM and 2.78 µM and 2.47 µM and 1.25 µM |
